Measured values published in patent publication US8765748B2, “Indazolyl, benzimidazolyl, benzotriazolyl substituted indolinone derivatives as kinase inhibitors useful in the treatment of cancer” (University Health Network, priority 2007, dated 2014).

Assays:
[1] = molecular target: T1, human PLK4 (Homo sapiens, UniProt O00444); experiment: PLK4 Inhibition Assay (indirect ELISA); format: biochemical; details: 15 μM ATP, 4 nM GST-PLK4; read-out: PLK4 IC50 Ranges
T1 construct: amino terminal GST fusion of residues 1-391 of human PLK4; made in house; host or cells: E. coli
T1 sequence (O00444 1-391): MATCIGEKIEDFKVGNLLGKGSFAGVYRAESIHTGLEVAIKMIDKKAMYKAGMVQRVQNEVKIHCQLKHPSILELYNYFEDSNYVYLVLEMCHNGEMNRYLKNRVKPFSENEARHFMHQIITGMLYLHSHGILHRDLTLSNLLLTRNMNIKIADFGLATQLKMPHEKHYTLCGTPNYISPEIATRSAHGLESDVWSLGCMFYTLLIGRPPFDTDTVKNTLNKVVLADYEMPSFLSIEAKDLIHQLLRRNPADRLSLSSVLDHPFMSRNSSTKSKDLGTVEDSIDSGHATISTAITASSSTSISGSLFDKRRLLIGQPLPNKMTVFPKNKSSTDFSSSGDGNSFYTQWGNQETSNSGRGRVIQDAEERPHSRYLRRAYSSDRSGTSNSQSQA
Method in brief: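 Dephosphorylated (lambda phosphatase) GST-PLK4 activity read by indirect ELISA. Compounds were pre-incubated with enzyme for 15 minutes before ATP was added. IC50 came from a non-linear 4-point logistic fit.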

[2] = system: SW620 colon cancer cells; experiment: Cell growth inhibition, Sulforhodamine B assay (SRB); format: cell-based; details: Homo sapiens, SW-620, 120 h, 5 days culture, read-out: Cell Line GI50 Range, SW-620
Procedure: (§1) Breast cancer cells (MCF-7, MDA-MB-468, HCC1954), colon cancer cells (SW620) and lung cancer cells (A549), together with human mammary epithelial primary cells (HMEC), were seeded (1000 to 4000 per 80 μl per well depending on the cell growth rate) into 96 well plates, 24 hours before compound overlay. Compounds were prepared as 10 mM stock solutions in 100% DMSO which were diluted with DMEM (Dulbecco's Modified Eagle's Medium) cell growth Medium (Invitrogen, Burlington, ON, Canada) containing 10% FBS (Fetal Bovine Serum) to concentrations ranging from 50 nM to 250 μM. Aliquots (20 μl) from each concentration were overlaid to 80 μl of the pre-seeded cells in the 96 well plates to make final concentrations of 10 nM to 50 μM. The cells were cultured for 5 days before the Sulforhodamine B assay (SRB) was performed to determine the compound's cell growth inhibition activity.
(§2) Sulforhodamine B (purchased from Sigma, Oakville, ON, Canada) is a water-soluble dye that binds to the basic amino acids of the cellular proteins. Thus, colorimetric measurement of the bound dye provides an estimate of the total protein mass that is related to the cell number. the cells are fixed in situ by gently aspirating off the culture media and adding 50 μl ice cold 10% Tri-chloroacetic Acid (TCA) per well and incubate at 4° C. for 30-60 min, The plates are washed with water five times and allowed to air dry for 5 min. Addition of 50 μl 0.4% (w/v) SRB solution in 1% (v/v) acetic acid to each well and incubatation for 30 min at RT completes the staining reaction. Following staining, plates are washed four times with 1% acetic acid to remove unbound dye and then allowed to air dry for 5 min. The stain is solubilized with 100 μl of 10 mM Tris pH10.5 per well. Absorbance is read at 570 nm.
(§3) The percentage (%) of relative growth inhibition was calculated by comparing to DMSO treated only cells (100%). GI50's were determined for compounds with cytotoxic activity. The GI50 was calculated using GraphPad PRISM software (GraphPad Software, Inc., San Diego, Calif., USA).

[3] = system: A549 lung cancer cells; experiment: as above; format: cell-based; details: Homo sapiens, A549, 120 h, 5 days culture, read-out: Cell Line GI50 Range, A-549
Procedure: as §1, §2, §3

[4] = system: HCC1954 basal breast cancer cell line; experiment: as above; format: cell-based; details: Homo sapiens, HCC1954, 120 h, 5 days culture, read-out: Cell Line GI50 Range, HCC-1954
Procedure: as §1, §2, §3

[5] = system: MDA-MB-468 basal breast cancer cell line; experiment: as above; format: cell-based; details: Homo sapiens, MDA-MB-468, 120 h; 5 days culture, SRB; read-out: Cell Line GI50 Range, MDA-MB-468
Procedure: as §1, §2, §3

[6] = system: MCF-7 luminal breast cancer cell line; experiment: as above; format: cell-based; details: Homo sapiens, MCF7, 120 h; 5 days culture, SRB; read-out: Cell Line GI50 Range, MCF-7
Procedure: as §1, §2, §3

[7] = molecular target: T2, Aurora A (Homo sapiens, UniProt O14965); experiment: Aurora A Inhibition Assay (Z-Lyte); format: biochemical; details: for IC50: 20 μM ATP, 12 nM Aurora A, read-out: Aurora A IC50 Ranges; for inhibition at 10 µM: 10 μM compound, read-out: Aurora A relative inhibition percentage at a dose of 10 μM
T2 construct: purchased Invitrogen PV3612
T2 sequence (O14965 1-403): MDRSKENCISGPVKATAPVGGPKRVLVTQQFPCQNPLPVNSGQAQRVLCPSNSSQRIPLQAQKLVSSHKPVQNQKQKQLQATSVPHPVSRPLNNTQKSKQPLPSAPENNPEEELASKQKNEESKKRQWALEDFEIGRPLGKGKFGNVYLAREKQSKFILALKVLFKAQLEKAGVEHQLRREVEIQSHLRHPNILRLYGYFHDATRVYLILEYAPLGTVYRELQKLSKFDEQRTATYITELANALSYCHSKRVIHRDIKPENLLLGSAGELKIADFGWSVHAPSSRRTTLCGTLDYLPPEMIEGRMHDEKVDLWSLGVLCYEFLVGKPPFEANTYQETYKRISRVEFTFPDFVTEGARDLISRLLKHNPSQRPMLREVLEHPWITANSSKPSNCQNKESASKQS
Procedure: (§4) Aurora A inhibition was determined using the Z-Lyte assay kit from Invitrogen. The assay was performed using the recommended manufacturer's instructions with 20 μM ATP and 12 nM Aurora A (Invitrogen cat #PV3612). The % inhibition values were determined according to the manufacturer's directions and IC50 values were obtained using a non-linear 4 point logistic curve fit (XLfit4, IDBS)

[8] = molecular target: T3, PLK3 (Homo sapiens, UniProt Q9H4B4); experiment: PLK3 Inhibition Assay (Z-Lyte); format: biochemical; details: 100 μM ATP, 21 nM PLK3
T3 construct: purchased Invitrogen PV3812
Procedure: as §4, with “PLK3” for “Aurora A”, “Invitrogen (cat #PV3802).” for “Invitrogen.”, “100” for “20”, “21” for “12”, “#PV3812).” for “#PV3612).”, “IDBS).” for “IDBS)”

[9] = molecular target: T4, Aurora B (Homo sapiens, UniProt Q96GD4); experiment: Aurora B Inhibition Assay (Z-Lyte); format: biochemical; details: for IC50: 128 μM ATP, 28 nM Aurora B, read-out: Aurora B IC50 Ranges
T4 construct: purchased Invitrogen PV3970
Procedure: as §4, with “Aurora B” for “Aurora A”, “with 128” for “with 20”, “and 28” for “and 12”, “cat #PV3970).” for “cat #PV3612).”

[10] = molecular target: T5, PLK1 (Homo sapiens, UniProt P53350); experiment: PLK1 Inhibition Assay (Z-Lyte); format: biochemical; details: for inhibition at 10 µM: 10 μM compound, read-out: PLK1 relative inhibition percentage at a dose of 10 μM
T5 construct: purchased Invitrogen PV3501
Procedure: PLK1 inhibition was determined using the Z-Lyte assay kit from Invitrogen (cat #PV3802). […] The % inhibition values were determined according to the manufacturer's directions and IC50 values were obtained using a non-linear 4 point logistic curve fit (XLfit4, IDBS)

[11] = molecular target: T6, PLK2 (Homo sapiens, UniProt Q9NYY3); experiment: PLK2 Inhibition Assay (Z-Lyte); format: biochemical
T6 construct: purchased Invitrogen PV4204
Procedure: as §4, with “PLK2” for “Aurora A”, “Invitrogen (cat #PV3802).” for “Invitrogen.”, “60” for “20”, “133” for “12”, “#PV4204).” for “#PV3612).”

T5 sequence (P53350 whole entry): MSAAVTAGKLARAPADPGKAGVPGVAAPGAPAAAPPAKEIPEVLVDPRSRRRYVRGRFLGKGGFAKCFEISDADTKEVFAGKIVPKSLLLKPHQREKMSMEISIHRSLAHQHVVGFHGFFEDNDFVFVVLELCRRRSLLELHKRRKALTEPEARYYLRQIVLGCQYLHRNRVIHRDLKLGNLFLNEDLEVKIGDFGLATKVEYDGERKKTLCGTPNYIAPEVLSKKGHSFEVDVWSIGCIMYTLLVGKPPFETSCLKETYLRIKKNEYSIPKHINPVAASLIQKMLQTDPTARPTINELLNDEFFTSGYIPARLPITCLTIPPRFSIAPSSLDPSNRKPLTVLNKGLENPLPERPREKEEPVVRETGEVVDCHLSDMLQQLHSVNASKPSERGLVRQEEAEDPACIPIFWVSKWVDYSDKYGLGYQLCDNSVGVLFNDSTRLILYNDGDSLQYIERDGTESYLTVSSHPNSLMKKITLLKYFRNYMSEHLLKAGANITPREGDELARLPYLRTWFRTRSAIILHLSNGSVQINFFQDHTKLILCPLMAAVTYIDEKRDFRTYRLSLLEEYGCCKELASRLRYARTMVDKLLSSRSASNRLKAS
T3 sequence (Q9H4B4 whole entry): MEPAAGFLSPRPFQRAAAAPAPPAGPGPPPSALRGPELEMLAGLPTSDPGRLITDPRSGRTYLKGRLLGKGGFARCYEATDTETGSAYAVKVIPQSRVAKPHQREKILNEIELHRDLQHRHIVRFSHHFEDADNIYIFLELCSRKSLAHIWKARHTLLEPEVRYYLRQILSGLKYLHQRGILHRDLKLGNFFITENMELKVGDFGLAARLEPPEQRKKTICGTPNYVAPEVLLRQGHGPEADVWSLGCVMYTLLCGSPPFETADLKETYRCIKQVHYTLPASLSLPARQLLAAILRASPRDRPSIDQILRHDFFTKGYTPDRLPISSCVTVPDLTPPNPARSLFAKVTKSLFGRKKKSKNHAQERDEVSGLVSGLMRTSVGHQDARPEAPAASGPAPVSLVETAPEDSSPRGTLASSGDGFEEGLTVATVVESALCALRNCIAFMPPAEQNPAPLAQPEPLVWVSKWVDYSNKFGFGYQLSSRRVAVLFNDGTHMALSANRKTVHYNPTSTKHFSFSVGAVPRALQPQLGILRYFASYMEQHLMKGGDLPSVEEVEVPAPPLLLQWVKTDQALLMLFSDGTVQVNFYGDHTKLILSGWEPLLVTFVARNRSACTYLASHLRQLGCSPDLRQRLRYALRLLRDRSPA
T4 sequence (Q96GD4 whole entry): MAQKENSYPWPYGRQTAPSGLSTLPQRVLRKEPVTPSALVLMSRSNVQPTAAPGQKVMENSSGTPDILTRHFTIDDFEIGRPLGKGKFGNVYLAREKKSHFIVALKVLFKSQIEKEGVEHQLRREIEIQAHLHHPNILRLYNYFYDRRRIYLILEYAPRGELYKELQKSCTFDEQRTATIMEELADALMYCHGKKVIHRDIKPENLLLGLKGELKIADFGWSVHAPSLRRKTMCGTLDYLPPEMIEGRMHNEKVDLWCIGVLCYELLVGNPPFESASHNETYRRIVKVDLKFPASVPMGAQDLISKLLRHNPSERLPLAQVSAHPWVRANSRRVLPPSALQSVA
T6 sequence (Q9NYY3 whole entry): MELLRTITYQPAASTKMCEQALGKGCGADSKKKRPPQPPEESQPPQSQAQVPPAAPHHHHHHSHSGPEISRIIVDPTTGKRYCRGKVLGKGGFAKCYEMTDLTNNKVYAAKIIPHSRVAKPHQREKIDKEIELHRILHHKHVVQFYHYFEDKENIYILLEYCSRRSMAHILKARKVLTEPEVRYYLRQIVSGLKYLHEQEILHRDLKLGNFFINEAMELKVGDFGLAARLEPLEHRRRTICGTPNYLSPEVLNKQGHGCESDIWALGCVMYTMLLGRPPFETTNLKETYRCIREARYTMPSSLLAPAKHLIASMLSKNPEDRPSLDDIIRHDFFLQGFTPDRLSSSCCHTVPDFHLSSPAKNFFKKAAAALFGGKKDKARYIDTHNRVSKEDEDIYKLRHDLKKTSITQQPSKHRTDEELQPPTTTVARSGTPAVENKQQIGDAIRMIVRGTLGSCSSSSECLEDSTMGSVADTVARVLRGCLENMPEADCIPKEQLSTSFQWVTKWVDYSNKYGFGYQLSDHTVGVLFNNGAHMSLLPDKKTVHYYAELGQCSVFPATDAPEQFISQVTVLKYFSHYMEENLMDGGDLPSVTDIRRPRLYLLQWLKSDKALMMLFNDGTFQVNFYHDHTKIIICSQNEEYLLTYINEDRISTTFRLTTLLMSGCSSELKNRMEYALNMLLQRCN

SMILES: O=C1Nc2ccccc2/C1=C\c1ccc2c(C#Cc3cccnc3)n[nH]c2c1 [Example A147, (E)-3-((3-(pyridin-3-ylethynyl)-1H-indazol-6-yl)methylene)indolin-2-one]
- IC50 [1]: < 5 µM
- GI50 [2]: 20 to 50 µM
- GI50 [3]: > 50 µM
- GI50 [4]: > 50 µM
- GI50 [5]: 5 to 20 µM
- GI50 [6]: 20 to 50 µM

SMILES: CN1CCN(c2ccc(-c3n[nH]c4cc(C=C5C(=O)Nc6ccc(Br)cc65)ccc34)cn2)CC1 (mixture of isomers) [Example A150, (E and Z)-5-bromo-3-((3-(6-(4-methylpiperazin-1-yl)pyridin-3-yl)-1H-indazol-6-yl)methylene)indolin-2-one]
- IC50 [1]: < 5 µM
- GI50 [2]: < 5 µM
- GI50 [3]: < 5 µM
- GI50 [4]: < 5 µM
- GI50 [5]: < 5 µM
- GI50 [6]: < 5 µM

SMILES: CN(C)c1ccc(C#Cc2n[nH]c3cc(C=C4C(=O)Nc5ccccc54)ccc23)cc1 (mixture of isomers) [Example A149, (E and Z)-3-((3-((4-(dimethylamino)phenyl)ethynyl)-1H-indazol-6-yl)methylene)indolin-2-one]
- IC50 [1]: < 5 µM
- IC50 [7]: 5 to 50 µM
- IC50 [8]: > 0.5 µM
- IC50 [9]: < 5 µM

SMILES: COc1ccc2c(c1)C(=Cc1ccc3c(-c4cccc(-c5nnn[nH]5)c4)n[nH]c3c1)C(=O)N2 (mixture of isomers) [Example A153, (E and Z)-3-((3-(3-(1H-tetrazol-5-yl)phenyl)-1H-indazol-6-yl)methylene)-5-methoxyindolin-2-one]
- IC50 [1]: < 5 µM
- IC50 [7]: < 5 µM
- IC50 [8]: > 0.5 µM
- IC50 [9]: < 5 µM

SMILES: CN1CCN(c2ccc(-c3n[nH]c4cc(C=C5C(=O)Nc6ccccc65)ccc34)cn2)CC1 (mixture of isomers) [Example A96, (E and Z)-3-((3-(6-(4-methylpiperazin-1-yl)pyridin-3-yl)-1H-indazol-6-yl)methylene)indolin-2-one]
- IC50 [1]: < 5 µM
- GI50 [2]: < 5 µM
- GI50 [3]: < 5 µM
- GI50 [4]: < 5 µM
- GI50 [5]: < 5 µM
- GI50 [6]: < 5 µM
- inhibition at 10 µM [7]: > 50%
- inhibition at 10 µM [10]: < 50%
- IC50 [9]: < 5 µM

SMILES: CN1CCN(c2ncc(-c3n[nH]c4cc(C=C5C(=O)Nc6ccc(OC(F)(F)F)cc65)ccc34)cn2)CC1 [Example A152, (E & Z)-3-((3-(2-(4-methylpiperazin-1-yl)pyrimidin-5-yl)-1H-indazol-6-yl)methylene)-5-(trifluoromethoxy)indolin-2-one]
- IC50 [1]: < 5 µM
- IC50 [8]: > 0.5 µM
- IC50 [9]: 5 to 50 µM

SMILES: COc1ccc2c(c1)/C(=C\c1ccc3c(C#Cc4cccnc4)n[nH]c3c1)C(=O)N2 [Example A148, (E)-5-methoxy-3-((3-(pyridin-3-ylethynyl)-1H-indazol-6-yl)methylene)indolin-2-one]
- IC50 [1]: < 5 µM
- IC50 [8]: > 0.5 µM
- IC50 [9]: < 5 µM

SMILES: O=C1Nc2ccc(Br)cc2/C1=C\c1ccc2[nH]ncc2c1 [Example A31, (E)-3-((1H-indazol-5-yl)methylene)-5-bromoindolin-2-one]
- IC50 [1]: < 5 µM
- GI50 [5]: < 5 µM
- GI50 [6]: < 5 µM
- IC50 ([11]; 60 μM ATP, 133 nM PLK2, read-out: PLK2 IC50 Ranges): 5 to 50 µM
- inhibition at 10 µM [7]: < 50%
- IC50 ([10]; 25 μM ATP, 8 nM PLK1, read-out: PLK1 IC50 Ranges): > 50 µM
- inhibition at 10 µM ([9]; 10 μM compound, read-out: Aurora B relative inhibition percentage at a dose of 10 μM): > 50%

SMILES: Cc1ccc2c(c1)/C(=C\c1ccc3c(/C=C/C(=O)N(C)CCN(C)C)n[nH]c3c1)C(=O)N2 [Example A125, (E and Z)—N-(2-(dimethylamino)ethyl)-N-methyl-3-(6-((E)-(5-methyl-2-oxoindolin-3-ylidene)methyl)-1H-indazol-3-yl)acrylamide]
- IC50 [1]: < 5 µM
- inhibition at 10 µM [7]: > 50%
- IC50 [8]: > 0.5 µM
- IC50 [9]: < 5 µM

SMILES: N#Cc1cccc2c1NC(=O)C2=Cc1ccc2cn[nH]c2c1 (mixture of isomers) [Example A45, (E and Z)-3-((1H-indazol-6-yl)methylene)-2-oxoindoline-7-carbonitrile]
- IC50 [1]: 5 to 50 µM
- IC50 [8]: > 0.5 µM

SMILES: COc1ccccc1/C=C/c1n[nH]c2cc(C=C3C(=O)Nc4ccccc43)ccc12 (mixture of isomers) [Example A59, (E and Z)-3-((3-((E)-2-methoxystyryl)-1H-indazol-6-yl)methylene)-indolin-2-one]
- IC50 [1]: < 5 µM
- GI50 [2]: < 5 µM
- GI50 [3]: 5 to 20 µM
- GI50 [4]: 5 to 20 µM
- GI50 [5]: < 5 µM
- GI50 [6]: < 5 µM
- inhibition at 10 µM ([11]; 10 μM compound, read-out: PLK2 relative inhibition percentage at a dose of 10 μM): < 50%
- IC50 [7]: < 5 µM
- inhibition at 10 µM [10]: < 50%
- IC50 [9]: < 5 µM
